{"source": "patent US20110039762A1", "about": "“TARGETED ANTIMICROBIAL MOIETIES” (C3 JIAN, INC., priority 2009, published 2011)", "note": "“Also recorded” adds a separate entry of the source.", "data": [{"system": "microorganisms (e.g., bacteria, yeasts, fungi)", "test": "Targeting peptide binding to target microorganisms (Table 3)", "settings": "microorganism(s) the targeting peptide binds; binding in aqueous buffers depending on peptide solubility, preferably 1x PBS", "values": [{"substance": "PF-214 (GHLRVCWVFSASLLTPFRSATLI; Peptide with targeting and/or antimicrobial activity)", "Target(s)": "S. mutans; also recorded: S. epidermidis; also recorded: M. luteus; also recorded: E. coli; also recorded: P. aeruginosa; also recorded: A. baumannii"}, {"substance": "PF-216 (ESVDKITEALEEDGFPAKVQ; Peptide with targeting and/or antimicrobial activity)", "Target(s)": "S. mutans; also recorded: E. coli"}, {"substance": "PF-217 (DWEFTHKTIPQKK; Peptide with targeting and/or antimicrobial activity)", "Target(s)": "S. mutans"}, {"substance": "PF-218 (SETPEKPVGTFFYSIYYKIIL; Peptide with targeting and/or antimicrobial activity)", "Target(s)": "S. epidermidis; also recorded: M. luteus; also recorded: P. aeruginosa; also recorded: A. baumannii"}, {"substance": "PF-219 (FLALAVIAGLFKVILIYAAPYLK; Peptide with targeting and/or antimicrobial activity)", "Target(s)": "S. epidermidis; also recorded: M. luteus; also recorded: P. aeruginosa; also recorded: A. baumannii"}, {"substance": "PF-221 (VFDNIDINF; Peptide with targeting and/or antimicrobial activity)", "Target(s)": "S. epidermidis; also recorded: M. luteus; also recorded: P. aeruginosa"}, {"substance": "PF-223 (VKFCIECQTKLERKRR; Peptide with targeting and/or antimicrobial activity)", "Target(s)": "S. epidermidis; also recorded: M. luteus; also recorded: A. baumannii"}, {"substance": "PF-225 (MNCASPEFKKLMELYK; Peptide with targeting and/or antimicrobial activity)", "Target(s)": "S. epidermidis"}, {"substance": "PF-228 (NQLGSQAFAQL; Peptide with targeting and/or antimicrobial activity)", "Target(s)": "S. mutans"}, {"substance": "PF-229 (DPILIQIGFTRFALRKAEAEKIEIQVEEGVPA; Peptide with targeting and/or antimicrobial activity)", "Target(s)": "S. epidermidis; also recorded: M. luteus; also recorded: P. aeruginosa; also recorded: A. baumannii"}, {"substance": "PF-230 (EDKPTNTIQEIKPVKWQ; Peptide with targeting and/or antimicrobial activity)", "Target(s)": "S. mutans"}, {"substance": "PF-231 (AVRDFKKSVREEDEAASLNSPRTIDAQVKTSESTSVKS; Peptide with targeting and/or antimicrobial activity)", "Target(s)": "S. mutans"}, {"substance": "PF-232 (FDQLYALEREGKLDELLA; Peptide with targeting and/or antimicrobial activity)", "Target(s)": "S. epidermidis; also recorded: M. luteus"}, {"substance": "PF-236 (KEIRTATVAELNAKRRLTSAEQALAEVS; Peptide with targeting and/or antimicrobial activity)", "Target(s)": "S. mutans; also recorded: S. epidermidis; also recorded: E. coli; also recorded: C. albicans; also recorded: S. pneumoniae; also recorded: E. faecalis"}, {"substance": "PF-237 (YVKPKVGVHE; Peptide with targeting and/or antimicrobial activity)", "Target(s)": "S. epidermidis"}, {"substance": "PF-238 (RNAVVVTEATFPKYEEEITNYLNRRFGEDWSLKLEKCSVA; Peptide with targeting and/or antimicrobial activity)", "Target(s)": "S. mutans and S. epidermidis and E. coli and P. aeruginosa and C. albicans and MRSA and S. pneumoniae and E. faecalis"}, {"substance": "PF-239 (PKHNVVTGVSVDLDYKP; Peptide with targeting and/or antimicrobial activity)", "Target(s)": "S. mutans; also recorded: E. coli"}, {"substance": "PF-240 (RITEVPPDEHSDR; Peptide with targeting and/or antimicrobial activity)", "Target(s)": "S. mutans; also recorded: E. coli"}, {"substance": "PF-242 (KLFEDPLIKSKAVENFQTTWHEQCLAKELAKNM; Peptide with targeting and/or antimicrobial activity)", "Target(s)": "S. mutans; also recorded: E. coli"}, {"substance": "PF-244 (HMRTISYLLAFAKFSLFIPPKQSLKRL; Peptide with targeting and/or antimicrobial activity)", "Target(s)": "S. epidermidis; also recorded: M. luteus; also recorded: P. aeruginosa; also recorded: A. baumannii"}, {"substance": "PF-245 (MNDVKPVVQPKQTLKAFLVQLLSVRAGVYIKQNNQLPKTKG; Peptide with targeting and/or antimicrobial activity)", "Target(s)": "S. epidermidis; also recorded: M. luteus; also recorded: P. aeruginosa; also recorded: A. baumannii"}, {"substance": "PF-246 (QPDEKAEFFDPSLDKVYRHPTFYHIPDGIEHM; Peptide with targeting and/or antimicrobial activity)", "Target(s)": "S. mutans"}, {"substance": "PF-247 (ETAASETH; Peptide with targeting and/or antimicrobial activity)", "Target(s)": "S. epidermidis"}, {"substance": "PF-248 (ILSKLWFWMINSLGVVLLVSYWLLAKWGVA; Peptide with targeting and/or antimicrobial activity)", "Target(s)": "S. mutans; also recorded: S. epidermidis; also recorded: M. luteus; also recorded: E. coli; also recorded: P. aeruginosa; also recorded: A. baumannii"}, {"substance": "PF-253 (VRDDDS; Peptide with targeting and/or antimicrobial activity)", "Target(s)": "S. epidermidis; also recorded: M. luteus"}, {"substance": "PF-254 (FIYGVGFVPHFWLWKWLFSPWIAWPLMLLGYYIWFLT; Peptide with targeting and/or antimicrobial activity)", "Target(s)": "S. epidermidis; also recorded: M. luteus; also recorded: P. aeruginosa; also recorded: A. baumannii"}, {"substance": "PF-256 (EYFKQVYVKNEKIYSFWICKDLSPKEAAKRAEDILVKLK; Peptide with targeting and/or antimicrobial activity)", "Target(s)": "S. epidermidis"}, {"substance": "PF-259 (LPFSKIGRRVSYKKKDVLKYEQSKTVLNTAQLATV; Peptide with targeting and/or antimicrobial activity)", "Target(s)": "S. epidermidis; also recorded: P. aeruginosa; also recorded: A. baumannii"}, {"substance": "PF-262 (DPHSEIDVTRYCQLHHFTCQTMQISEREFHYLIETQ; Peptide with targeting and/or antimicrobial activity)", "Target(s)": "S. mutans; also recorded: S. epidermidis; also recorded: M. luteus; also recorded: E. coli; also recorded: P. aeruginosa; also recorded: A. baumannii"}, {"substance": "PF-263 (NLKKCPC; Peptide with targeting and/or antimicrobial activity)", "Target(s)": "S. epidermidis; also recorded: M. luteus; also recorded: A. baumannii"}, {"substance": "PF-265 (MKTLFFPLFLIIFVLIIQALDQSYQKKIGISKPQKHPEFMQ; Peptide with targeting and/or antimicrobial activity)", "Target(s)": "S. epidermidis; also recorded: M. luteus; also recorded: A. baumannii"}, {"substance": "PF-266 (DQEKKNKTEESTEQ; Peptide with targeting and/or antimicrobial activity)", "Target(s)": "S. mutans"}, {"substance": "PF-267 (SDDKRTD; Peptide with targeting and/or antimicrobial activity)", "Target(s)": "M. luteus"}, {"substance": "PF-268 (EVLLSDLRPDIFSET; Peptide with targeting and/or antimicrobial activity)", "Target(s)": "S. mutans"}, {"substance": "PF-275 (LVSGVANTVKNTAHTVGNTAKHAGHVAADTTVKATKKQQVK; Peptide with targeting and/or antimicrobial activity)", "Target(s)": "S. mutans"}, {"substance": "PF-279 (SHIGFISISACLAVLLGIARLFVWTWVKFFA; Peptide with targeting and/or antimicrobial activity)", "Target(s)": "S. mutans; also recorded: S. epidermidis; also recorded: M. luteus; also recorded: E. coli; also recorded: P. aeruginosa; also recorded: A. baumannii"}, {"substance": "PF-281 (SYNTYYNKLIHGQRTPDGM; Peptide with targeting and/or antimicrobial activity)", "Target(s)": "S. mutans; also recorded: E. coli"}, {"substance": "PF-282 (QNNDTSAWCGSAHKNGNS; Peptide with targeting and/or antimicrobial activity)", "Target(s)": "S. mutans"}, {"substance": "PF-284 (MRYITYSLIPRLLSKKVIHQQ; Peptide with targeting and/or antimicrobial activity)", "Target(s)": "C. difficile"}, {"substance": "PF-285 (VPAKLLRVIDEIPE; Peptide with targeting and/or antimicrobial activity)", "Target(s)": "S. mutans"}, {"substance": "PF-288 (IYQLLNIEYSEDD; Peptide with targeting and/or antimicrobial activity)", "Target(s)": "S. mutans; also recorded: E. coli"}, {"substance": "PF-291 (DVDGAIESEL; Peptide with targeting and/or antimicrobial activity)", "Target(s)": "S. mutans; also recorded: E. coli"}, {"substance": "PF-295 (NIQVYESECGNYIFKKSDESFLIDIFDKNGTH; Peptide with targeting and/or antimicrobial activity)", "Target(s)": "C. difficile"}, {"substance": "PF-299 (LATKLKYEKEHKKM; Peptide with targeting and/or antimicrobial activity)", "Target(s)": "B. subtilis"}, {"substance": "PF-300 (VKDVLLELFNKIIGA; Peptide with targeting and/or antimicrobial activity)", "Target(s)": "B. subtilis; also recorded: C. difficile"}, {"substance": "PF-304 (LVKDTSDIKNDLNNIEIVTSKNSNDIAKLKSVK; Peptide with targeting and/or antimicrobial activity)", "Target(s)": "S. mutans"}, {"substance": "PF-308 (QQYLILDRM; Peptide with targeting and/or antimicrobial activity)", "Target(s)": "C. difficile"}, {"substance": "PF-309 (GIPGMTAAPAEENEQEENADEE; Peptide with targeting and/or antimicrobial activity)", "Target(s)": "S. mutans; also recorded: E. coli"}, {"substance": "PF-311 (IDAVTKKKTTCMIRAPTKIPIAHTDN; Peptide with targeting and/or antimicrobial activity)", "Target(s)": "C. difficile"}, {"substance": "PF-314 (ECLKKAIKSKALNKAFKIDVPDEVYDNLLMELEEYEK; Peptide with targeting and/or antimicrobial activity)", "Target(s)": "S. mutans"}, {"substance": "PF-317 (LILVSDI; Peptide with targeting and/or antimicrobial activity)", "Target(s)": "S. mutans"}, {"substance": "PF-320 (DSGYYALLENKEERVVWDGEVVANNIFNNLWIVVNKVKTG; Peptide with targeting and/or antimicrobial activity)", "Target(s)": "S. mutans; also recorded: E. coli"}]}]}
